Data set [1] has as its system mouse neuroblastoma cell line neuro-2a. Kind of data set: Activity on neuro-2a, cells with outgrown neurites. Type of data set: cell-based. The method, boiled down: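 Mouse neuro-2a cells in DMEM with FCS exposed to compounds for 24 h (up to 6 concentrations, triplicate runs), glutaraldehyde-fixed and methylene blue-stained. Proportion of cells bearing a neurite at least twice the cell's long diameter counted microscopically over ≥200 cells.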

Another data set concerns mice. Kind of data set: Acute toxicity, mouse. The data set is classed as in vivo. To be noted: 24 hours. On the procedure:
(§1) The acute toxicity of the compounds of the invention was examined by the following method.
(§2) Male ddy-strain 5-week old mice and male Wistar-strain 8 week old rats, five per group, were used as experimental animals. Each of the compounds was dissolved in saline and administered perorally, and the toxicity of the compound was assessed 24 hours after the administration.

The nature of another data set: Acute toxicity, rat. Type of data set: in vivo. To be noted: in vivo, po, Table 7, p.o., read-out: Presumed LD50. On the procedure: as §1, §2
The test system of a further data set is rats. The data set can be described thus: Acute toxicity, rat. Type of data set: in vivo. Conditions: Table 7, 1700 mg/kg p.o., 24 hours. On the procedure: as §1, §2
Data set [2] deals with human neuroblastoma cell line GOTO. Kind of data set: Activity on neuroblastoma cell line GOTO (cell number, number and length of neurites). Type of data set: cell-based. The method, boiled down:
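GOTO cells were cultured 1–2 days at 37 °C, 5% CO2, then switched to serum-free RPMI/MEM (1:1) with compounds in PBS at various concentrations for 24 h. Living cells were counted by erythrosine exclusion (3–6 dishes); neurite number and length per cell were measured from photographs.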

For data set [3] the test system is unchanged. Kind of data set: Activity on cell line GOTO (simple method). The data set is classed as cell-based. Conditions: 10 μg/ml, control 8.4. On the procedure:
(§3) The biological activities in vitro of the compounds of formula (I) on cells of the nervous system were tested. The cells tested were human neuroblastoma cell line GOTO [see Sekiguchi, M., Oota, T., Sakakibara, K., Inui, N. & Fujii, G., Japan. J. Exp. Med., 49, 67-83 (1979)], and neuroblastoma cell line NB-1 [see Miyake, S., Shimo, Y., Kitamura, T., Nojyo, Y., Nakamura, T., Imkashuku, S. and Abe, T., The Autonomic Nervous System, 10, 115-120 (1973)], and mouse neuroblastoma cell line neuro-2a (Dainippon Pharmaceutical Co., Ltd.) which have been established as the cells of the nervous system. The above neuve cells were grown in an incubator at 37° C. in the presence of 5% carbon dioxide gas exponentially, and then cultivated for a certain period of time together with the compounds of formula (I).
A culture medium [composed of 45% of RPMI 1640 medium, 45% modified Eagle's medium (MEM) and 10% of fetal calf serum (FCS) and containing penicillin G sodium (100 units/ml) and streptomycin sulfate (100 microgram/ml)] containing neurobalstoma cell line GOTO in the logarithmic growth period was poured in an amount of 2 ml each into polystyrene dishes (35 mm; made by Corning Co.) so that the cell concentration was 2 to 6×10^4 cells per dish, and the cells were cultured for 1 to 2 days in a carbon dioxide gas incubator containing 5% of carbon dioxide gas in air at 37° C. Then, the culture fluid was removed, and 2 ml of a fresh serum-free culture fluid (consisting of 50% of RPMI medium and 50% of MEM medium and containing penicillin G sodium and streptomycin sulfate in the same amounts as above) was added. At the same time, a presterilized PBS solution (phosphate buffered saline) of each of the test compounds in various concentrations was added to each of the dishes. After culturing for 24 hours, the number of living cells was counted. Furthermore, the culture was photographed, and from the photos, the number and length of neurites per cell were measured. The numer of living cells was counted for 3 to 6 dishes by resistance to staining with erythrosine dye. The number and length of the neurites were measured with regard to 6 photos (more than 200 cells per photo).
(§4) As a simple method of evaluation, the number of cells have neurites with a length equal to, or larger than, the long diameter of the cell was divided by the total number of cells.

Data set [4] relates to mouse neuroblastoma cell line neuro-2a. The data set can be described thus: Activity on cell line neuro-2a (simple method). Type of data set: cell-based. On the procedure:
as §3, with “(I). […]” for “(I).”
as §4

Bounds are passed on as bounds.

For `CN1Cc2nc(N3CCNCC3)ncc2C1=O` [Compound 602], the “Cells having neurites with a length at least twice the long diameter of cell/total number of cells” value in data set [1] (Table 3 Run No. 6, 0.1 mM, control 4.4 ± 0.9) is 6.2 ± 0.2%; in data set [1] (Table 3 Run No. 6, 3 mM, control 4.4 ± 0.9), 10.0 ± 0.9%. The “Number of dead animals/number of test animals” value in the data set with mice (Table 7, 1000 mg/kg p.o.) is reported as 0/5; in the data set with mice (Table 7, 1700 mg/kg p.o.) it was 0/5; in the data set with mice (Table 7, 3000 mg/kg p.o.), 3/5; with rats, 0/5. Moreover, the LD50 at 24 h in “Acute toxicity, rat” is over 1700 mg/kg.
Consider `CC(C)Nc1ncccn1.O=P(O)(O)O` [Isaxonine, 2-isopropylaminopyrimidine ortho-phosphate, reference compound], for which the “Length of neurites (mean ± S.D.)” value in data set [2] (Table 1, Run No. 6 by footnote, 1 μg/ml, control 42.48 ± 19.64, all *P <0.01) worked out at 58.20 ± 25.40 μm/cell; in data set [2] (Table 1, Run No. 7 by footnote, 1 μg/ml, control 42.20 ± 17.75, all *P <0.01), 57.06 ± 28.78 μm/cell; in data set [2] (Table 1 Run No. 1, 1 μg/ml, control 70.10 ± 43.03) it was 87.86 ± 56.03 μm/cell; in data set [2] (Table 1 Run No. 1, 10 μg/ml, control 70.10 ± 43.03), 82.87 ± 50.70 μm/cell; in data set [2] (Table 1 Run No. 2, 1 μg/ml, control 55.00 ± 37.26), 66.01 ± 40.21 μm/cell; in data set [2] (Table 1 Run No. 3, 1 μg/ml, control 45.13 ± 22.71, all *P <0.01), 68.29 ± 24.83 μm/cell. Besides, the “Length of neurites (mean ± S.D.)” value in data set [2] (Table 1 Run No. 4, 1 μg/ml, control 54.15 ± 33.64) was 71.25 ± 40.39 μm/cell. The “Number of neurites/cell (mean ± S.D.)” value in data set [2] (Table 1, last control group (Run No. 7 by footnote), 1 μg/ml, control 1.77 ± 0.68) stood at 1.91 ± 0.56 neurites/cell; in data set [2] (Table 1, second control group (Run No. 6 by footnote), 1 μg/ml, control 1.79 ± 0.80), 2.00 ± 0.86 neurites/cell; in data set [2] (Table 1 Run No. 1, 1 μg/ml, control 2.09 ± 0.61), 2.18 ± 0.77 neurites/cell; in data set [2] (Table 1 Run No. 1, 10 μg/ml, control 2.09 ± 0.61), 1.99 ± 0.51 neurites/cell; in data set [2] (Table 1 Run No. 2, 1 μg/ml, control 2.06 ± 0.60) it was 2.09 ± 0.66 neurites/cell; in data set [2] (Table 1 Run No. 3, 1 μg/ml, control 1.94 ± 0.69, all *P <0.01), 2.31 ± 0.86 neurites/cell. Besides, in data set [2] (Table 1 Run No. 4, 1 μg/ml, control 1.98 ± 0.74), the “Number of neurites/cell (mean ± S.D.)” value is reported as 1.99 ± 0.70 neurites/cell. Besides, the “Number of cells (mean ± S.E.)” value in data set [2] (Table 1 Run No. 1, 1 μg/ml, control 14.34 ± 0.72) was 17.63 ± 2.80 × 10^4 /dish; in data set [2] (Table 1 Run No. 1, 10 μg/ml, control 14.34 ± 0.72), 19.18 ± 0.67 × 10^4 /dish; in data set [2] (Table 1 Run No. 2, 1 μg/ml, control 12.30 ± 1.48) it was 14.89 ± 1.35 × 10^4 /dish; in data set [2] (Table 1 Run No. 4, 1 μg/ml, control 5.48 ± 1.38), 9.44 ± 1.95 × 10^4 /dish. Also, the Number of cells in data set [2] (Table 1 Run No. 3, 1 μg/ml, control 3.17) is 4.72 × 10^4 /dish. For the same compound, the “Average of the proportions” value in data set [3] (Table 2 GOTO Run No. 1) is listed as 12.58%; in data set [3] (Table 2 GOTO Run No. 2), 12.58%; in data set [4] (Table 2 neuro-2a Run No. 1, 1 μg/ml, control 7.9), 12.15%; in data set [4] (Table 2 neuro-2a Run No. 2, 1 μg/ml, control 7.9) it was 12.15%; in data set [4] (Table 2 neuro-2a Run No. 3, 0.1 μg/ml, control 2.0) it was 9.1%; in data set [4] (Table 2 neuro-2a Run No. 3, 1 μg/ml, control 2.0), 9.1%. Also, the “Cells having neurites with a length at least twice the long diameter of cell/total number of cells” value in data set [1] (Table 3 Run No. 3, 0.03 mM, control 3.9 ± 0.3) is given as 4.7 ± 0.4%; in data set [1] (Table 3 Run No. 3, 0.1 mM, control 3.9 ± 0.3), 6.8 ± 1.2%; in data set [1] (Table 3 Run No. 3, 1 mM, control 3.9 ± 0.3), 7.0 ± 0.8%; in data set [1] (Table 3 Run No. 4, 1 mM, control 3.1 ± 0.2), 5.7 ± 1.2%; in data set [1] (Table 3 Run No. 4, 3 mM, control 3.1 ± 0.2), 13.6 ± 2.3%; in data set [1] (Table 3 Run No. 4, 10 mM, control 3.1 ± 0.2), 34.4 ± 0.6%. In addition, the “Cells having neurites with a length at least twice the long diameter of cell/total number of cells” value in data set [1] (Table 3 Run No. 6, 10 mM, control 4.4 ± 0.9) is recorded as 29.9 ± 0.9%; in data set [1] (Table 3 Run No. 7, 10 mM, control 2.5 ± 0.7), 24.9 ± 1.0%; in data set [1] (Table 3 Run No. 8, 10 mM, control 3.7 ± 0.4), 28.2 ± 1.6%; in data set [1] (Table 3 second Run No. 5, 1 mM, control 4.5 ± 0.3), 6.8 ± 2.2%; in data set [1] (Table 3 second Run No. 5, 10 mM, control 4.5 ± 0.3), 27.0 ± 3.4%.

The term LD50 denotes the dose at which mortality reaches 50%.

These data come from patent publication US4959368A, “Therapeutic agent for neurological diseases” (Mitsui Petrochemical Industries Ltd., priority 1986, dated 1990).
